Data as given in patent publication US4619932A, “Novel carbostyril derivatives, process for producing thereof and pharmaceutical composition containing the same” (Otsuka Pharmaceutical Co., Ltd., priority 1980, dated 1986).
Structures can show the parent of a compound that is named as a salt. Where two headings read alike, the source gives them in different places.

Experiments:
[1] = system: epinephrine; experiment: Activity for antagonizing epinephrine in mouse; format: in vivo, mouse (male, ddy strain); conditions: read-out: ED50 value, dose allowing half the animals to survive
Protocol: (C) Activity for antagonizing epinephrine in mouse
Individual male mice of ddy strain having 17 to 20 g of body weight were used. The mice were abstained from eating for 24 hours. One test group consist of 10 mice. A compound to be tested was administered orally. One hour after the administration, 40 mg/kg of epinephrine was intraperitonerally administered. […] All of 10 mice administered physiological saline solution as the reference group were dead within a few minutes after the administration of epinephrine. (Cf. Loew, E. R. and Micetich, A., J. Pharmacol. Exp. Ther., 93, 434-443 (1948)).

[2] = system: male rats; conditions: rat, in vivo, po
Protocol: Each of the following compound of the general formula in the present invention was administered orally to male rats to determine the acute toxicity (LD50 mg/kg).

[3] = system: jumping behavior induced by Methamphetamine and L-DOPA; experiment: Activity for inhibiting jumping behavior in mouse induced by Methamphetamine and L-DOPA; format: in vivo, mouse (male, ddy-strain); conditions: read-out: ED50 value, inhibition of jumping behavior
Protocol: (B) Activity for inhibiting jumping behavior in mouse induced by Methamphetamine and L-DOPA
Individual male mice of ddy-strain having a body weight of 17 to 25 g were used. The mice were not fed for 24 hours. One test group consisted of 6 mice. A compound to be tested was administered orally. 40Minutes after the administration 4 mg/kg of Methamphetamine d-N-α-dimethylphenthylamine was intraperitonerally administered, further 15 minutes after the administration of Methamphetamine, 400 mg/kg of L-DOPA was intraperitonerally administered. 60 Minutes after the administration of L-DOPA, (3-(3,4-dihydroxyphenyl)alanine) the mouse was placed in a glass beaker of 2 liters capacity, and the number of jumping of the mouse was recorded. The activity for inhibiting jumping behavior of the test compound was determined as positive in case of number of jumping performed by the administered mouse counted 10 or less. While, the activity for inhibiting jumping behabior of the test compound was determined as negative in case the number of jumping performed by the administered mouse recorded over 10. The effective dosage (ED50 value: mg/kg) of the test compound which gives 3 mice were positive over 6 mice of one test group was calculated. The number of jumping performed by the mouse being administered with physiological saline solution as the reference was 150 to 200 per hour. (Cf. H. Lal, F. C. Colpaert, P. Laduron: European J. Pharmacol., 30, 113-116 (1975)).

[4] = system: Halothane anesthesia; experiment: Halothane anesthesia increasing activity; format: in vivo, mouse (male, ddy-strain); conditions: 16 mg/kg oral, 1 hour before 4% Halothane for 3 minutes; righting reflex
Protocol: Male mice of ddy-strain a having about 20 g body weight were used. One test group consists of 10 mice. An aqueous Gummi Arabicum suspension of test compound (80 mg of a compound to be tested and 1 g of Gummi Arabicum/100 ml of physiological NaCl solution) was administered orally to each mouse at the dosage of 16 mg of test compound/kg body. One hour after the administration, each mouse was placed in gas respiration chamber (13×13×24 cm) and oxygen gas containing 4% of Halothane (2-brome-2-chloro-1,1,1-trifluoroethane) was flown into the chamber at the velocity of 2/min for 3 minutes. A mouse anaesthetized was taken out from the chamber and the time between the introduction of anesthesia to waking was measured by righting reflex as the index. To mice of control group, 1% Gummi Arabicum aqueous physiological solution was orally administered at the dosage of 0.1 ml/kg body.

[5] = system: palpebral ptosis; experiment: Palpebral ptosis test in mouse; format: in vivo, mouse (male, ddy-strain); conditions: 64 mg/kg oral, 1 hour; score 0 (wide open eyes) to 8 (eyes completely closed); mean of 10 mice
Protocol: (D) Activity of palpebral ptosis test in mouse
Individual male mice of ddy-strain having 18 to 20 g of body weight were used. The mice were abstained from eating for 24 hours. One test group consists of 10 mice. […] One hour after the administration, the state of palpebral ptosis of the mouse were observed and evaluated on the basis of the following score system. The mean value was calculated from the scores of 10 mice.
Score Degree of palpebral ptosis
8 Eyes completely closed.

[6] = oral, 1 hour before epinephrine 40 mg/kg i.p., survival at 24 hours
[7] = oral, Methamphetamine 4 mg/kg i.p. and L-DOPA 400 mg/kg i.p., positive = 10 or fewer jumps

## CCOc1ccccc1N1CCN(CC=Cc2ccc3c(c2)CCC(=O)N3)CC1 [Compound 9, 6-{3-[4-(2-Ethoxyphenyl)-1-piperazinyl]-1-propenyl}-3,4-dihydrocarbostyril]
[1]; [6]
  ED50: 0.005 mg/kg
[2]
  Acute toxicity (LD50): 500 mg/kg
[3]; [7]
  ED50: 0.12 mg/kg

## Cc1cccc(N2CCN(CCC(O)c3ccc4c(c3)CCC(=O)N4)CC2)c1C (stereo not shown) [Compound 6, 6-{1-Hydroxy-3-[4-(2,3-dimethylphenyl)-1-piperazinyl]-propyl}-3,4-dihydrocarbostryril]
[4]
  Time (minutes) between introduction of anesthesia to waking: 8.2 min
[2]
  Acute toxicity (LD50): 500 mg/kg

## O=C1CCc2cc(CCCCN3CCN(c4ccccc4Cl)CC3)ccc2N1 [Compound 14, 6-{4-[4-(2-Chlorophenyl)-1-piperazinyl]-butyl}-3,4-dihydrocarbostyril]
[3]; [7]
  ED50: 3.23 mg/kg

## O=C1CCc2cc(C(=O)CCN3CCN(c4ccccc4)CC3)ccc2N1 [Compound 1, 6-[1-Oxo-3-(4-phenyl-1-piperazinyl)propyl]-3,4-dihydrocarbostyril]
[4]
  Time (minutes) between introduction of anesthesia to waking: 13.3 min
[1]; [6]
  ED50: 3.03 mg/kg
[2]
  Acute toxicity (LD50): 500 mg/kg
[3]; [7]
  ED50: 1.35 mg/kg
[5]
  Score obtained (Mean value), degree of palpebral ptosis: 1.67

## COc1ccccc1C1=CCN(CC=Cc2ccc3c(c2)CCC(=O)N3)CC1 [Compound 27, 6-{3-[4-(2-Methoxyphenyl)-1,2,5,6-tetrahydropyridyl]-1-propenyl}-3,4-dihydrocarbostyril monooxalate]
[3]; po
  ED50: 1.25 mg/kg

## CCOc1ccccc1N1CCN(CCC=Cc2ccc3c(c2)CCC(=O)N3)CC1 [Compound 12, 6-{4-[4-(2-Ethoxyphenyl)-1-piperazinyl]-1-butenyl}-3,4-dihydrocarbostyril]
[1]; [6]
  ED50: 0.005 mg/kg
[3]; [7]
  ED50: 0.056 mg/kg

## COc1ccccc1N1CCN(CC=Cc2ccc3c(c2)CCC(=O)N3)CC1 [Compound 19]
[1]; [6]
  ED50: 0.1 mg/kg
[2]
  Acute toxicity (LD50): 500 mg/kg
[3]; [7]
  ED50: 0.79 mg/kg

## CN(C)CCCN1c2ccccc2Sc2ccc(Cl)cc21 [Chlorpromazine, 2-chloro-N,N-dimethyl-10H-phenothiazine-10-propanamine, reference compound]
[1]; po, 24 h
  ED50: 10.6 mg/kg
[3]; po
  ED50: 7.6 mg/kg

## O=C1CCc2cc(C(=O)CCN3CCN(c4cccc(Cl)c4)CC3)ccc2N1 [Compound 7, 6-{1-Oxo-3-[4-(3-chlorophenyl)-1-piperazinyl]-propyl}-3,4-dihydrocarbostyril.monohydrochloride]
[2]
  Acute toxicity (LD50): 500 mg/kg
[3]; [7]
  ED50: 1.34 mg/kg
[5]
  Score obtained (Mean value), degree of palpebral ptosis: 1.33

## O=C1CCc2cc(C=CCN3CCN(c4cccc(Cl)c4)CC3)ccc2N1 [Compound 8, 6-{3-[4-(3-Chlorophenyl)-1-piperazinyl]-1-propenyl}-3,4-dihydrocarbostyril]
[2]
  Acute toxicity (LD50): 500 mg/kg
[3]; [7]
  ED50: 1.02 mg/kg

## O=C1CCc2cc(C(=O)CCCN3CCN(c4ccccc4)CC3)ccc2N1 [Compound 2, 6-[1-Oxo-4-(4-phenyl-1-piperazinyl)butyl]-3,4-dihydrocarbostyril.monohydrochloride]
[4]
  Time (minutes) between introduction of anesthesia to waking: 11.5 min
[1]; [6]
  ED50: 4.02 mg/kg
[2]
  Acute toxicity (LD50): 500 mg/kg
[3]; [7]
  ED50: 1.52 mg/kg
[5]
  Score obtained (Mean value), degree of palpebral ptosis: 4.5

## O=c1ccc2cc(CCCCN3CCN(c4ccccc4)CC3)ccc2[nH]1 [Compound 30, 6-[4-(4-Phenyl-1-piperazinyl)butyl]-carbostyril]
[2]
  Acute toxicity (LD50): 500 mg/kg
[3]; [7]
  ED50: 0.56 mg/kg

## CCOc1ccccc1N1CCN(CCCCc2ccc3c(c2)CCC(=O)N3)CC1 [Compound 15, 6-{4-[4-(2-Ethoxyphenyl)-1-piperazinyl]-butyl}-3,4-dihydrocarbostyril]
[1]; [6]
  ED50: 0.71 mg/kg
[2]
  Acute toxicity (LD50): 500 mg/kg
[3]; [7]
  ED50: 0.39 mg/kg

## O=C1CCc2cc(C=CCN3CCN(c4ccc(Cl)cc4)CC3)ccc2N1 [Compound 13, 6-{3-[4-(4-chlorophenyl)-1-piperazinyl]-1-propenyl}-3,4-dihydrocarbostyril]
[2]
  Acute toxicity (LD50): 500 mg/kg
[3]; [7]
  ED50: 4.16 mg/kg

## CCC(C(=O)c1ccc2[nH]c(=O)ccc2c1)N1CCN(c2cccc(Cl)c2)CC1 (stereo not shown) [Compound 4, 6-{1-Oxo-2-[4-(3-chlorophenyl)-1-piperazinyl]butyl}-carbostyril]
[4]
  Time (minutes) between introduction of anesthesia to waking: 9.7 min
[3]; po
  ED50: 4.05 mg/kg
[5]
  Score obtained (Mean value), degree of palpebral ptosis: 2.33

## O=C1CCc2cc(C=CCCN3CCN(c4ccccc4)CC3)ccc2N1 [Compound 11, 6-[4-(4-Phenyl-1-piperazinyl)-1-butenyl]-3,4-dihydrocarbostyril]
[1]; [6]
  ED50: 4 to 8 mg/kg
[2]
  Acute toxicity (LD50): 500 mg/kg
[3]; [7]
  ED50: 1.6 mg/kg

## COc1ccccc1C1CCN(CCCc2ccc3c(c2)CCC(=O)N3)CC1.O=C(O)C(=O)O [Compound 29, 6-{3-[4-(2-Methoxyphenyl)-1-piperidyl]-propyl}-3,4-dihydrocarbostyril monooxalate]
[3]; [7]
  ED50: 2.01 mg/kg

## O=C1CCc2cc(C(=O)CCCN3CC=C(c4ccccc4)CC3)ccc2N1 [Compound 28, 6-[1-Oxo-4-(4-phenyl-1,2,5,6-tetrahydropyridyl)butyl]-3,4-dihydrocarbostyril]
[3]; po
  ED50: 8.89 mg/kg

## CCOc1ccccc1N1CCN(CCCc2ccc3c(c2)CCC(=O)N3)CC1 [Compound 16, 6-{3-[4-(2-Ethoxyphenyl)-1-piperazinyl]-propyl}-3,4-dihydrocarbostyril]
[1]; [6]
  ED50: 0.02 mg/kg
[2]
  Acute toxicity (LD50): 500 mg/kg
[3]; [7]
  ED50: 0.24 mg/kg

## CCC(C(O)c1ccc2[nH]c(=O)ccc2c1)N1CCN(c2cccc(Cl)c2)CC1 (stereo not shown) [Compound 32, 6-{1-Hydroxy-2-[4-(3-chlorophenyl)-1-piperazinyl]butyl}carbostyril]
[3]; [7]
  ED50: 4.86 mg/kg

## CCOc1ccccc1N1CCN(CCC=Cc2ccc3[nH]c(=O)ccc3c2)CC1 [Compound 31, 6-{4-[4-(2-Ethoxyphenyl)-1-piperazinyl]-1-butenyl}carbostyril]
[3]; [7]
  ED50: 0.14 mg/kg

## O=C1CCc2cc(C(=O)CCCN3CC=C(c4ccc(Cl)cc4)CC3)ccc2N1 [Compound 25, 6-{1-Oxo-4-[4-(4-chlorophenyl)-1,2,5,6-tetrahydropyridyl]butyl}-3,4-dihydrocarbostiryl]
[3]; po
  ED50: 9.56 mg/kg

## O=C1CCc2cc(CCCN3CCN(c4ccccc4)CC3)ccc2N1 [Compound 18, 6-[3-(4-Phenyl-1-piperazinyl)propyl]-3,4-dihydrocarbostyril]
[1]; [6]
  ED50: 0.21 mg/kg
[2]
  Acute toxicity (LD50): 500 mg/kg
[3]; [7]
  ED50: 0.34 mg/kg

## O=C1CCc2cc(C(O)CCCN3CCN(c4cccc(Cl)c4)CC3)ccc2N1 (stereo not shown) [Compound 5, 6-{1-Hydroxy-4-[4-(3-chlorophenyl)-1-piperazinyl]butyl}-3,4-dihydrocarbostyril]
[4]
  Time (minutes) between introduction of anesthesia to waking: 13.0 min
[2]
  Acute toxicity (LD50): 500 mg/kg
[3]; [7]
  ED50: 1.95 mg/kg

## Cc1cccc(N2CCN(CC=Cc3ccc4c(c3)CCC(=O)N4)CC2)c1 [Compound 10, 6-{3-[4-(3-Methylphenyl)-1-piperazinyl]-1-propenyl}-3,4-dihydrocarbostyril]
[2]
  Acute toxicity (LD50): 500 mg/kg
[3]; [7]
  ED50: 6.02 mg/kg

## COc1ccccc1N1CCN(CCCc2ccc3c(c2)CCC(=O)N3)CC1 [Compound 17, 6-{3-[4-(2-Methoxyphenyl)-1-piperazinyl] -propyl}-3,4-dihydrocarbostyril]
[1]; [6]
  ED50: 0.29 mg/kg
[2]
  Acute toxicity (LD50): 500 mg/kg

## Cc1ccc(C2=CCN(CCC(=O)c3ccc4c(c3)CCC(=O)N4)CC2)cc1 [Compound 26, 6-{1-Oxo-3-[4-(4-methylphenyl)-1,2,5,6-tetrahydropyridyl]propyl}-3,4-dihydrocarbostiryl]
[3]; po
  ED50: 10.3 mg/kg
